Assay results taken from patent publication US10316021B2, “Heteroarylphenoxy benzamide kappa opioid ligands” (Pfizer Inc., priority 2016, dated 2019).
Where two headings read alike, the source gives them in different places.

Key:
[1] = molecular target: T1, human kappa opioid receptor (hKOR) (Homo sapiens, UniProt P41145); assay: Kappa radioligand binding assay ([3H]diprenorphine, CHO cell membranes); conditions: for Selectivity hMOR/hKOR: selectivity ratio calculated by dividing the hMOR Ki by the hKOR Ki
T1 construct: expressed in transfected cells; host or cells: CHO cells
T1 sequence (P41145 whole entry): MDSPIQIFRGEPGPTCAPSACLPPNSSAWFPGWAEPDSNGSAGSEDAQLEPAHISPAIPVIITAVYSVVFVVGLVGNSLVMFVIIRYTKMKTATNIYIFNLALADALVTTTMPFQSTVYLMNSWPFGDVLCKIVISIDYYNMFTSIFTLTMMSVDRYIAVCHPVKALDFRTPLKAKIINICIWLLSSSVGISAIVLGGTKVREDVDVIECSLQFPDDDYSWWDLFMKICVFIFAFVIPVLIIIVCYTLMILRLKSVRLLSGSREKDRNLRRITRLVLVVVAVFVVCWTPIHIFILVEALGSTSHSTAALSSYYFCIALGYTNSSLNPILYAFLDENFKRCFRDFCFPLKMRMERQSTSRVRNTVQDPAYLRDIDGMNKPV
Procedure: (§1) Kappa and Mu Radioligand Binding Assay:
(§2) Binding assays on membranes from CHO cells expressing human kappa or mu opioid receptors were performed according to standard procedures. Frozen cell paste was homogenized in 50 mM Tris HCl buffer (pH 7.4 @ 4 degrees C.) containing 2.0 mM MgCl2 using a Polytron and spun in a centrifuge at 40,000 g for ten minutes. The final pellet was resuspended in assay buffer (50 mM Tris HCl buffer, pH 7.4, containing 1 mM EDTA, 5 mM MgCl2). Incubations were initiated by the addition of membranes to 96-well plates containing test drugs and [^3H]diprenorphine (0.6 nM final concentration for kappa opioid receptor and 0.5 nM final concentration for mu) in a final volume of 250 μl. Non-specific binding was determined by radioligand binding in the presence of a saturating concentration of naltrexone (10 μM). After a one hour incubation period at room temperature, assay samples were rapidly filtered through PEI coated, GF/B fired Unifilter plates (PerkinElmer) and rinsed with ice-cold 50 mM Tris buffer (pH 7.4). Membrane bound [^3H]diprenorphine levels were determined by liquid scintillation counting of the filterplates in Ecolume scintillation fluid. The IC50 value (concentration at which 50% inhibition of specific binding occurs) was calculated using a logistic 4 parameter fit model of the concentration-response data. Ki values were calculated according to the Cheng Prusoff equation, Ki=IC50/(1+(L/Kd)), where L is the concentration of the radioligand used in the experiment and the Kd value is the dissociation constant for the radioligand (determined previously by saturation analysis).

[2] = molecular target: T2, human mu opioid receptor (hMOR) (Homo sapiens, UniProt P35372); assay: Mu radioligand binding assay ([3H]diprenorphine, CHO cell membranes)
T2 construct: expressed in transfected cells; host or cells: CHO cells
T2 sequence (P35372 whole entry): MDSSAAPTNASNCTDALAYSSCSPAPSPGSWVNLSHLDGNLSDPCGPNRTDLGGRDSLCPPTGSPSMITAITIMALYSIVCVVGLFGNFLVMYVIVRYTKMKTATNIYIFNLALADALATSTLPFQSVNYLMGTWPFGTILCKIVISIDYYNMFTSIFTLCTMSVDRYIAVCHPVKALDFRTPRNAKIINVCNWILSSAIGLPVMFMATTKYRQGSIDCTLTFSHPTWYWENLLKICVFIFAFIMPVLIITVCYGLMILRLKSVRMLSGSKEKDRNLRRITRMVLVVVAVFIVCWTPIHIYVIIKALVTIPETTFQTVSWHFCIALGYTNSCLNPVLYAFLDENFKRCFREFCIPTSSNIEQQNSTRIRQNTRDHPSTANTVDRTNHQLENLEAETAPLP
Procedure: as §1
as §2, with “The IC50 value (concentration at which 50% inhibition of specific binding occurs) was calculated using a logistic 4 parameter fit model of the concentration-response data.” left out

[3] = Table 19, geometric mean of 2-6 determinations unless otherwise indicated (Example 3: >=7), read-out: hKOR binding assay Ki
[4] = Table 20, radioligand binding, read-out: hKOR binding assay Ki
[5] = Table 19, geometric mean of 2-6 determinations unless otherwise indicated (Example 3: >=7), read-out: hMOR binding assay Ki
[6] = Table 20, radioligand binding, read-out: hMOR binding assay Ki
[7] = radioligand binding, [3H]diprenorphine, read-out: hKOR Ki
[8] = radioligand binding, [3H]diprenorphine, read-out: hMOR Ki

Ki [1, 3]	Ki [2, 5]	SMILES	other results
16.8 nM	56.2 nM	Cc1cnn(C)c1C1CCCN1Cc1ccc(Oc2ccc(C(N)=O)cc2F)cc1 (stereo not shown) [Example 43]	selectivity for KOR over MOR, in words [1]: unacceptably lower levels of selectivity (MOR/KOR); Ki [1, 4]: 16.8 nM; Selectivity hMOR/hKOR [1]: 3; Ki [2, 6]: 56.2 nM
–	–	COc1nn(C)cc1C1CC(F)CN1Cc1ccc(Oc2ccc(C(N)=O)cc2)cc1 (stereo not drawn) [isomer of Example 24]	Ki [1, 7]: 36.3 nM; Ki [2, 8]: 1210 nM
85.8 nM	2730 nM	Cc1nsc(C2CCCN2Cc2ccc(Oc3ccc(C(N)=O)cc3)cc2)n1 (single isomer, unassigned) [Example 41, 4-(4-{[2-(3-methyl-1,2,4-thiadiazol-5-yl)pyrrolidin-1-yl]methyl}phenoxy)benzamide]	Ki [1, 7]: > 100 nM; Selectivity hMOR/hKOR [1]: 32; Ki [2, 6]: 2730 nM
–	–	COc1nn(C)cc1C1COCCN1Cc1ccc(Oc2ccc(C(N)=O)cc2)cc1 (single isomer, unassigned) [enantiomer of Example 23, 4-(4-{[3-(3-methoxy-1-methyl-1H-pyrazol-4-yl)morpholin-4-yl]methyl}phenoxy)benzamide]	Ki [1, 7]: 223 nM; Ki [2, 8]: > 564 nM
0.461 nM	16.9 nM	Cc1nn(C)cc1C1CCCN1Cc1ccc(Oc2ccc(C(N)=O)cc2)c(F)c1 (single isomer, unassigned; (-)) [Example 3, (−)-4-(4-{[2-(1,3-Dimethyl-1H-pyrazol-4-yl)pyrrolidin-1-yl]methyl}-2-fluorophenoxy)benzamide]	–
5.86 nM	165 nM	COc1nn(C)cc1C1COCCN1Cc1ccc(Oc2ccc(C(N)=O)cc2F)cc1 (single isomer, unassigned) [Example 20, 3-fluoro-4-(4-{[3-(3-methoxy-1-methyl-1H-pyrazol-4-yl)morpholin-4-yl]methyl}phenoxy)benzamide]	–
2.21 nM	252 nM	COc1nn(C)cc1C1CC(F)CN1Cc1ccc(Oc2ccc(C(N)=O)cc2)cc1 (single isomer, unassigned) [Example 24, 4-(4-{[4-fluoro-2-(3-methoxy-1-methyl-1H-pyrazol-4-yl)pyrrolidin-1-yl]methyl}phenoxy)benzamide]	–
2.7 nM	391 nM	Cc1nn(C)cc1C1CC(F)CN1Cc1ccc(Oc2ccc(C(N)=O)cc2)cc1 (single isomer, unassigned) [Example 25, 4-(4-{[2-(1,3-dimethyl-1H-pyrazol-4-yl)-4-fluoropyrrolidin-1-yl]methyl}phenoxy) benzamide]	–
10.5 nM	> 526 nM	Cc1nn(C)cc1C1CC(F)CN1Cc1ccc(Oc2ccc(C(N)=O)cc2)cc1 (single isomer, unassigned) [Example 26, 4-(4-{[2-(1,3-dimethyl-1H-pyrazol-4-yl)-4-fluoropyrrolidin-1-yl]methyl}phenoxy) benzamide]	–
4.99 nM	51.7 nM	COc1nn(C)cc1C1CC(C)CN1Cc1ccc(Oc2ccc(C(N)=O)cc2F)cc1 (single isomer, unassigned) [Example 31, 3-fluoro-4-(4-{[2-(3-methoxy-1-methyl-1H-pyrazol-4-yl)-4-methylpyrrolidin-1-yl]methyl}phenoxy)benzamide]	–
0.498 nM	10.6 nM	COc1nn(C)cc1C1CC(C)CN1Cc1ccc(Oc2ccc(C(N)=O)cc2F)cc1 (single isomer, unassigned) [Example 29, 3-fluoro-4-(4-{[2-(3-methoxy-1-methyl-1H-pyrazol-4-yl)-4-methylpyrrolidin-1-yl]methyl}phenoxy)benzamide]	–
–	–	Cc1nn(C)nc1C1CCCN1Cc1ccc(Oc2ccc(C(N)=O)cc2)c(F)c1 (single isomer, unassigned) [enantiomer of Example 39, 4-(4-{[2-(2,5-dimethyl-2H-1,2,3-triazol-4-yl)pyrrolidin-1-yl]methyl}-2-fluorophenoxy)benzamide]	Ki [1, 7]: 74.5 nM; Ki [2, 8]: 132 nM
9.67 nM	159 nM	Cc1nn(C)cc1C1CCCN1Cc1ccc(Oc2ccc(C(N)=O)c(O)c2)cc1 (racemic) [Example 16, (+/−)-4-(4-{[2-(1,3-Dimethyl-1H-pyrazol-4-yl)pyrrolidin-1-yl]methyl}phenoxy)-2-hydroxybenzamide]	–
14.5 nM	127 nM	Cc1cc(C2CCCN2Cc2ccc(Oc3ccc(C(N)=O)cc3F)cc2)nn1C (stereo not shown) [Example 44]	selectivity for KOR over MOR, in words [1]: unacceptably lower levels of selectivity (MOR/KOR); Ki [1, 4]: 14.5 nM; Selectivity hMOR/hKOR [1]: 9; Ki [2, 6]: 127 nM
0.999 nM	13.5 nM	Cn1ccc([C@@H]2CCCN2Cc2ccc(Oc3ccc(C(N)=O)cc3F)cc2)n1 [Example 19, 3-fluoro-4-(4-{[(2S)-2-(1-methyl-1H-pyrazol-3-yl)pyrrolidin-1-yl]methyl}phenoxy)benzamide]	–
–	–	Cc1nn(C)nc1C1CCCN1Cc1ccc(Oc2ccc(C(N)=O)cc2)cc1 (single isomer, unassigned) [enantiomer of Example 38, 4-(4-{[2-(2,5-dimethyl-2H-1,2,3-triazol-4-yl)pyrrolidin-1-yl]methyl}phenoxy)benzamide]	Ki [1, 7]: > 119 nM; Ki [2, 8]: 252 nM
13.3 nM	12.5 nM	Cc1nn(C)c(C)c1C1CCCN1Cc1ccc(Oc2ccc(C(N)=O)cc2F)cc1 (racemic) [Example 37]	selectivity for KOR over MOR (hMOR Ki divided by hKOR Ki) [1]: 0.9 fold; Ki [1, 4]: 13.3 nM; Selectivity hMOR/hKOR [1]: 0.9; Ki [2, 6]: 12.5 nM
0.567 nM	14.6 nM	COc1nn(C)cc1C1CCCCN1Cc1ccc(Oc2ccc(C(N)=O)cc2)cc1 (single isomer, unassigned) [Example 21, 4-(4-{[2-(3-methoxy-1-methyl-1H-pyrazol-4-yl)piperidin-1-yl]methyl}phenoxy)benzamide]	–
3.22 nM	73.3 nM	COc1nn(C)cc1C1COCCN1Cc1ccc(Oc2ccc(C(N)=O)cc2)cc1 (single isomer, unassigned) [Example 23, 4-(4-{[3-(3-methoxy-1-methyl-1H-pyrazol-4-yl)morpholin-4-yl]methyl}phenoxy)benzamide]	–
0.417 nM	9.59 nM	COc1nn(C)cc1C1CC(C)CN1Cc1ccc(Oc2ccc(C(N)=O)cc2F)cc1 (single isomer, unassigned) [Example 30, 3-fluoro-4-(4-{[2-(3-methoxy-1-methyl-1H-pyrazol-4-yl)-4-methylpyrrolidin-1-yl]methyl}phenoxy)benzamide]	–
1.76 nM	63.6 nM	Cc1nn(C)cc1C1CCCN1Cc1ccc(Oc2ccc(C(N)=O)c(O)c2)cc1 (single isomer, unassigned; (-)) [Example 18, (−)-4-(4-{[2-(1,3-Dimethyl-1H-pyrazol-4-yl)pyrrolidin-1-yl]methyl}phenoxy)-2-hydroxybenzamide]	–
23.2 nM	150 nM	COc1n[nH]cc1C1CCCN1Cc1ccc(Oc2ccc(C(N)=O)cc2)cc1 (single isomer, unassigned; (+)) [Example 15, (+)-4-(4-{[2-(3-Methoxy-1H-pyrazol-4-yl)pyrrolidin-1-yl]methyl}phenoxy)benzamide]	–
–	–	COc1nn(C)cc1C1COCCN1Cc1ccc(Oc2ccc(C(N)=O)cc2)c(F)c1 (single isomer, unassigned) [enantiomer of Example 22, 4-(2-fluoro-4-{[3-(3-methoxy-1-methyl-1H-pyrazol-4-yl)morpholin-4-yl]methyl}phenoxy)benzamide]	Ki [1, 7]: 263 nM; Ki [2, 8]: > 564 nM
